{"source": "patent US20160095867A1", "about": "“BET INHIBITION THERAPY FOR HEART DISEASE” (DANA-FARBER CANCER INSTITUTE, INC., priority 2013, published 2016)", "system": "NRVM", "test": "PE-mediated pathologic gene induction in NRVM (qRT-PCR, gene expression profiling)", "type": "cell-based, rat", "description": "NRVM were isolated from the hearts of 2 day old Sprague-Dawley rat pups (Charles River) and maintained under standard conditions as described (Haldar et al., 2010). The cells were differentially plated for 1.5 h in cell culture dishes to remove contaminating non-myocytes. Unless otherwise stated, NRVM were plated at a density of 10^5 cells/mL. Cells were initially plated in growth medium (DMEM supplemented with 5% FBS, 100 U/mL penicillin-streptomycin, and 2 mM L-glutamine) for 24-36 hours and maintained in serum-free media thereafter (DMEM supplemented with 0.1% BSA, 1% insulin-transferrin-selenium liquid media supplement (Sigma 13146), 100 U/mL penicillin-streptomycin, and 2 mM L-glutamine). Media was changed every 2-3 days. Prior to stimulation with agonists, NRVM were maintained in serum-free medium for 48-72 hours. For hypertrophic stimulation, NRVM were incubated with JQ1 versus DMSO at indicated concentrations for 6 h followed by stimulation with PE (100 μM) for indicated timepoints.\nFor tissue RNA, a 10-20 mg piece of mouse heart tissue was preserved in RNA Later stabilization reagent (Qiagen) followed by mechanical disruption/homogenization in PureZOL (BioRad) on a TissueLyser (Qiagen) using stainless steel beads (Qiagen). The aqueous phase was extracted with chloroform. RNA was purified from the aqueous phase using the Aurum purification kit (BioRad #732-6830) following manufacturer's instructions. For cellular samples, total RNA from NRVM was isolated using the High Pure RNA isolation kit (Roche #11828665001) with on-column DNAase treatment according to manufacturer's directions. Purified RNA was reverse transcribed to complementary DNA using the iScript™ RT Supermix (Biorad #170-8841) following manufacturer's protocol. Quantitative real-time PCR was performed using TaqMan chemistry (Fast Start Universal Probe Master (Roche cat#4914058001) and labeled probes from the Roche Universal Probe Library System) on a Roche LightCycler. Relative expression was calculated using the AACt-method with normalization to constitutive genes as indicated.\nTo determine the transcriptional effects of BET bromodomain inhibition during hypertrophic transformation, gene expression profiling (GEP) studies were performed in cultured NRVM at baseline and after PE stimulation (1.5, 6, 48 h) in the presence or absence of JQ1. These three timepoints were assessed to capture induction of early response genes such as c-Myc (Starksen et al., 1986) and the final hypertrophic gene program. […] A heat map of genes selected based on the highest magnitude of PE-mediated changes illustrates each of these clusters (FIG. 3A). […]"}
{"compound": "Cc1sc2c(c1C)C(c1ccc(Cl)cc1)=N[C@@H](CC(=O)OC(C)(C)C)c1nnc(C)n1-2", "note": "[JQ1]", "values": [{"measurement": "PE-mediated gene induction, global gene expression profiling", "setting": "500 nM JQ1, 100 μM PE, 1.5, 6, 48 h", "result": "attenuate or completely abrogate"}, {"measurement": "PE-mediated c-myc induction (qRT-PCR)", "setting": "JQ1 500 nM, PE 100 μM", "result": "does not suppress"}, {"measurement": "PE-mediated induction of IL6 (qRT-PCR)", "setting": "JQ1 500 nM, PE 100 μM", "result": "significantly attenuated"}, {"measurement": "PE mediated pathologic gene induction (hypertrophic marker genes, qRT-PCR)", "setting": "JQ1 500 nM, PE 100 μM, 48 h", "result": "significantly blocked"}]}
